ChEMBL document CHEMBL1201862, “PubChem BioAssay data set” (2004)
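These data come from cells grown in 96-well plates and exposed to compound for 48 hours at five concentrations. GI50 marks 50% less growth.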 Calls of active or inactive are those of the source. No stated cut-off is given here; in the data, active = GI50 up to about 1.1 µM and inactive = higher.

Experiments:
Test in all cases: DTP human tumour cell line panel, 48 h
[1] = test system: 786-0
[2] = test system: A498
[3] = test system: A549
[4] = test system: ACHN
[5] = test system: BT-549
[6] = test system: CAKI-1
[7] = test system: CCRF-CEM
[8] = test system: COLO 205
[9] = test system: DU-145
[10] = test system: EKVX
[11] = test system: HCC 2998
[12] = test system: HCT-116
[13] = test system: HCT-15
[14] = test system: HL-60
[15] = test system: HOP-62
[16] = test system: HOP-92
[17] = test system: HT-29
[18] = test system: Hs-578T
[19] = test system: IGROV-1
[20] = test system: K562
[21] = test system: KM12
[22] = test system: LOX IMVI
[23] = test system: M14
[24] = test system: MCF7
[25] = test system: MDA-MB-231
[26] = test system: MDA-MB-435
[27] = test system: MDA-N
[28] = test system: MOLT-4
[29] = test system: NCI-H226
[30] = test system: NCI-H23
[31] = test system: NCI-H460
[32] = test system: NCI-H522
[33] = test system: NCI/ADR-RES
[34] = test system: OVCAR-3
[35] = test system: OVCAR-4
[36] = test system: OVCAR-5
[37] = test system: OVCAR-8
[38] = test system: PC-3
[39] = test system: RPMI-8226
[40] = test system: RXF 393
[41] = test system: SF-268
[42] = test system: SF-295
[43] = test system: SF-539
[44] = test system: SK-MEL-28
[45] = test system: SK-MEL-2
[46] = test system: SK-MEL-5
[47] = test system: SK-OV-3
[48] = test system: SN12C
[49] = test system: SNB-19
[50] = test system: SNB-75
[51] = test system: SR
[52] = test system: SW-620
[53] = test system: T47D
[54] = test system: TK-10
[55] = test system: U-251
[56] = test system: UACC-257
[57] = test system: UACC-62
[58] = test system: UO-31
[59] = test system: Malme-3M

## O=C1C[C@@H](C(=O)OCc2ccccc2)NC(=O)C[C@@H](C(=O)OCc2ccccc2)NC(=O)C[C@@H](C(=O)OCc2ccccc2)N1
[1]
  GI50: 21 µM (inactive)
[2]
  GI50: 27.5 µM (inactive)
[3]
  GI50: > 100 µM (inactive)
[4]
  GI50: 23 µM (inactive)
[5]
  GI50: > 100 µM (inactive)
[6]
  GI50: > 100 µM (inactive)
[7]
  GI50: 0.0675 µM (active)
[8]
  GI50: > 100 µM (inactive)
[9]
  GI50: > 100 µM (inactive)
[10]
  GI50: > 100 µM (inactive)
[11]
  GI50: > 95.9 µM (inactive)
[12]
  GI50: > 84.1 µM (inactive)
[13]
  GI50: > 100 µM
[14]
  GI50: 0.659 µM (active)
[15]
  GI50: 33.9 µM (inactive)
[16]
  GI50: 20.7 µM (inactive)
[17]
  GI50: > 100 µM (inactive)
[18]
  GI50: 13.1 µM (inactive)
[19]
  GI50: 98.6 µM (inactive)
[20]
  GI50: 4.16 µM (inactive)
[21]
  GI50: > 100 µM (inactive)
[22]
  GI50: > 100 µM (inactive)
[23]
  GI50: > 92.9 µM (inactive)
[24]
  GI50: > 100 µM (inactive)
[25]
  GI50: 14 µM (inactive)
[26]
  GI50: > 100 µM (inactive)
[27]
  GI50: > 100 µM (inactive)
[28]
  GI50: 4.15 µM (inactive)
[29]
  GI50: > 100 µM (inactive)
[30]
  GI50: 47 µM (inactive)
[31]
  GI50: > 100 µM (inactive)
[32]
  GI50: 36.6 µM (inactive)
[33]
  GI50: > 100 µM (inactive)
[34]
  GI50: > 100 µM (inactive)
[35]
  GI50: > 100 µM (inactive)
[36]
  GI50: > 100 µM (inactive)
[37]
  GI50: > 100 µM (inactive)
[38]
  GI50: > 100 µM (inactive)
[39]
  GI50: 38.8 µM (inactive)
[40]
  GI50: 13.3 µM (inactive)
[41]
  GI50: 15.2 µM (inactive)
[42]
  GI50: 20 µM (inactive)
[43]
  GI50: 18.5 µM (inactive)
[44]
  GI50: > 100 µM (inactive)
[45]
  GI50: 13 µM (inactive)
[46]
  GI50: > 100 µM (inactive)
[47]
  GI50: 20.8 µM (inactive)
[48]
  GI50: > 100 µM (inactive)
[49]
  GI50: 45.5 µM (inactive)
[50]
  GI50: 1.06 µM (active)
[51]
  GI50: 4.06 µM (inactive)
[52]
  GI50: > 100 µM (inactive)
[53]
  GI50: > 100 µM (inactive)
[54]
  GI50: 19.6 µM (inactive)
[55]
  GI50: 12.1 µM (inactive)
[56]
  GI50: > 100 µM (inactive)
[57]
  GI50: 64.7 µM (inactive)
[58]
  GI50: > 100 µM (inactive)

## Sc1nn2c(COc3cc(Cl)c(OCc4nnc5sc(S)nn45)cc3Cl)nnc2s1
[1]
  GI50: 39.5 µM (inactive)
[2]
  GI50: > 100 µM (inactive)
[3]
  GI50: > 100 µM (inactive)
[4]
  GI50: 36.1 µM (inactive)
[5]
  GI50: 32.7 µM (inactive)
[6]
  GI50: > 100 µM (inactive)
[8]
  GI50: > 100 µM (inactive)
[9]
  GI50: 78.3 µM (inactive)
[10]
  GI50: 5.51 µM (inactive)
[11]
  GI50: 36.1 µM (inactive)
[12]
  GI50: 46 µM (inactive)
[13]
  GI50: 33.1 µM
[14]
  GI50: 37.8 µM (inactive)
[15]
  GI50: > 100 µM (inactive)
[16]
  GI50: 38.9 µM (inactive)
[17]
  GI50: 43.3 µM (inactive)
[18]
  GI50: > 100 µM (inactive)
[19]
  GI50: 41.6 µM (inactive)
[20]
  GI50: 33.7 µM (inactive)
[21]
  GI50: > 100 µM (inactive)
[22]
  GI50: 32.8 µM (inactive)
[23]
  GI50: > 100 µM (inactive)
[24]
  GI50: 18.2 µM (inactive)
[25]
  GI50: > 100 µM (inactive)
[26]
  GI50: 43.9 µM (inactive)
[27]
  GI50: 33.6 µM (inactive)
[28]
  GI50: 31.3 µM (inactive)
[59]
  GI50: 40.1 µM (inactive)
[29]
  GI50: > 100 µM (inactive)
[30]
  GI50: > 100 µM (inactive)
[31]
  GI50: > 100 µM (inactive)
[32]
  GI50: 20.1 µM (inactive)
[33]
  GI50: > 100 µM (inactive)
[34]
  GI50: 30.5 µM (inactive)
[35]
  GI50: 51.8 µM (inactive)
[36]
  GI50: > 100 µM (inactive)
[37]
  GI50: 88.5 µM (inactive)
[38]
  GI50: > 100 µM (inactive)
[39]
  GI50: 32.4 µM (inactive)
[40]
  GI50: 39.2 µM (inactive)
[41]
  GI50: 44.6 µM (inactive)
[42]
  GI50: > 100 µM (inactive)
[43]
  GI50: 87.5 µM (inactive)
[44]
  GI50: 31.3 µM (inactive)
[45]
  GI50: > 100 µM (inactive)
[46]
  GI50: 41.2 µM (inactive)
[47]
  GI50: > 100 µM (inactive)
[48]
  GI50: 41.2 µM (inactive)
[49]
  GI50: > 100 µM (inactive)
[50]
  GI50: 82 µM (inactive)
[51]
  GI50: 30.1 µM (inactive)
[52]
  GI50: 30.3 µM (inactive)
[53]
  GI50: 26 µM (inactive)
[54]
  GI50: > 100 µM (inactive)
[55]
  GI50: > 100 µM (inactive)
[56]
  GI50: > 100 µM (inactive)
[57]
  GI50: 28.6 µM (inactive)
[58]
  GI50: 31.3 µM (inactive)
